Data set [1] is described as follows: Cytotoxicity in mock-infected MT-4 cells (MTT). Format: cell-based. The conditions noted are these: human, read-out: CC50 in MT4-IIIB (μm). How it is done:
A rapid and automated assay procedure was used for the in vitro evaluation of anti-HIV agents. An HTLV-1 transformed T4-cell line MT-4, which was previously shown to be highly susceptible to and permissive for HIV infection, served as the target cell line. Inhibition of the HIV-induced cytopathogenic effect was used as the end point. The viability of both HIV-and mock-infected cells was assessed spectrophotometrically via in situ reduction of 3-(4,5-dimethylthiazol-2-yl)-2,5-diphenyltetrazolium bromide (MTT). The 50% cytotoxic concentration (CC50 in μg/ml) was defined as the concentration of compound that reduced the absorbance of the mock-infected control sample by 50%. The percent protection achieved by the compound in HIV-infected cells was calculated by the following formula: […]
Examples of inhibition of cell proliferation by particular compounds of formula (I) can be found by looking at the respective CC50 values in the MT-4 cell line.
Cells: MT-4 cells (Miyoshi et al., 1982) were grown and maintained in RPMI 1640 medium supplemented with 10% heat-inactivated fetal calf serum, 2 mM I-glutamine, 0.1% sodium bicarbonate, and 20 æg of gentamicin per ml.

Data set [2] concerns the target T1, His6-tagged HIV-1 integrase / flag-LEDGF/p75 interaction (Human immunodeficiency virus type 1 group M subtype B, UniProt P04585).
T1 construct: His6-tagged HIV-1 integrase; made in house
As to the kind of experiment: AlphaScreen assay of LEDGF-integrase interaction inhibition. Format: binding. The following applies: compounds tested from 0.1 up to 100 μM. How it is done:
Alphascreen Assay to Measure the LEDGF-Integrase Interaction Inhibitory Activity of Compounds of the Invention
The AlphaScreen assay was performed according to the manufacturer's protocol (Perkin Elmer, Benelux). Reactions were performed in 25 μl final volume in 384-well Optiwell™ microtiter plates (Perkin Elmer). The reaction buffer contained 25 mM Tris-HCl (pH 7.4), 150 mM NaCl, 1 mM MgCl2, 0.01% (v/v) Tween-20 and 0.1% (w/v) bovine serum albumin. His6-tagged integrase (300 nM final concentration) was incubated with the compounds for 30 min at 4° C. The compounds were added at varying concentrations spanning a wide range from 0.1 up to 100 μM. Afterwards 100 nM flag-LEDGF/p75 was added and incubation was prolonged for an additional hour at 4° C. Subsequently 5 μl of Ni-chelate-coated acceptor beads and 5 μl anti-flag donor beads were added to a final concentration of 20 μg/ml of both beads. Proteins and beads were incubated for 1 h at 30° C. in order to allow association to occur. Exposure of the reaction to direct light was omitted as much as possible and the emission of light from the acceptor beads was measured in the EnVision plate reader (Perkin Elmer, Benelux) and analyzed using the EnVision manager software. IN/DNA binding was analyzed in a similar setting using His6-tagged integrase (1 μM final concentration) and an oligodeoxynucleotide mimicking the IN ELISA oligonucleotide substrate (30 nM final concentration). Counterscreens with JPO2 or PogZ, respectively, were essentially performed as described previously.
Expression and purification of recombinant proteins: His6-tagged HIV-1 integrase, 3×flag-tagged LEDGF/p75, MBP-JPO2 and MBP-PogZ were purified for AlphaScreen applications as described previously 23,25,56.
For orientation: Alpha assays give light when donor and acceptor beads are brought close together.

A further data set deals with HIV (MT4-IIIB). As to the kind of experiment: Anti-HIV activity: inhibition of HIV-induced cytopathogenic effect in MT-4 cells (MTT). Format: cell-based. The conditions noted are these: Human immunodeficiency virus 1, IIIB. (Damage to the host cells serves as the signal in cytopathic effect assays.)

The source of these data is US8906906B2, “Viral replication inhibitors” (Katholieke Universiteit Leuven, priority 2009, dated 2014).

For orientation: CC50 means the concentration that lowers cell viability or growth by half. One may read the IC50 as the midpoint of a concentration-inhibition curve. The low end stands for greater potency in that assay, the high end for weaker potency in that assay. One may read the EC50 as the concentration at which the effect is half-maximal. Low values mean a more potent agent, high ones a less potent agent. Regarding `CCCC(C(=O)O)c1c(C)nc(N2CCCCC2)nc1-c1ccc(C)cc1` (stereo not drawn) [cpd 22], in data set [1], the CC50 was found to be 100 µM. For the same compound, inhibition in data set [2] was half-maximal at 4.74 µM (IC50). Besides, in the data set on HIV (MT4-IIIB), the response was half-maximal at 9.16 µM (EC50).

On to `CCCC(C(=O)O)c1c(C)nc(N2CCCC2)nc1-c1ccc(C)cc1` (stereo not drawn) [cpd 30], for which, in data set [1], the CC50 came to 143 µM. Further, the 50% inhibitory concentration (IC50) in data set [2] was 4.61 µM. Also, the response with HIV (MT4-IIIB) was half-maximal at 16.1 µM (EC50).

Take `CCCC(C(=O)O)c1c(C)nc(N2CCCC(C(=O)NCC(C)C)C2)nc1-c1ccc(C)cc1` (stereo not drawn) [cpd 38]: in data set [1], the CC50 is 144 µM. In data set [2], this compound displayed an IC50 of 10.9 µM. In the data set on HIV (MT4-IIIB), this compound came in with an EC50 of 5.97 µM.

For the compound `CCCC(C(=O)O)c1c(C)nc(N2CCCC(C)C2)nc1-c1ccc(C)cc1` (stereo not drawn) [cpd 40], in data set [1], the CC50 is 120 µM. The compound further registered an IC50 in data set [2] of 25.1 µM. In addition, a half-maximal effect in the data set with HIV (MT4-IIIB) (EC50) was put at 24.6 µM.

In the case of `CCCC(C(=O)O)c1c(C)nc(N2CCCN(CC)CC2)nc1-c1ccc(C)cc1` (stereo not drawn) [cpd 56], the CC50 in data set [1] was above 250 µM. For the same compound, in data set [2], the IC50 amounted to 73.8 µM. The compound further registered a concentration giving a half-maximal response (EC50) in the data set with HIV (MT4-IIIB) of 101 µM.

Consider `CCCC(C(=O)O)c1c(C)nc(N2CCc3ccccc32)nc1-c1ccc(C)cc1` (stereo not drawn) [cpd 58], for which, in data set [1], the CC50 worked out at 38.7 µM. Moreover, in data set [2], half-maximal inhibition (IC50) was put at 17.9 µM. The EC50 in the data set with HIV (MT4-IIIB) was determined as 2.91 µM.

With `CCCC(C(=O)O)c1c(C)nc(-c2ccccc2)nc1N1CCCCC1` (stereo not drawn) [cpd 60], in data set [1], the cytotoxic concentration (CC50) amounted to 61 µM. Moreover, the IC50 in data set [2] came out at 4.71 µM. A half-maximal response in the data set on HIV (MT4-IIIB) (EC50) required 13.2 µM.

As to `CCCC(C(=O)O)c1c(C)nc(-c2ccccc2)nc1N1CCCCCC1` (stereo not drawn) [cpd 62], in data set [1], the cytotoxic concentration (CC50) is 131 µM. The compound also yielded an IC50 in data set [2] of 6.71 µM. Besides, a half-maximal effect with HIV (MT4-IIIB) (EC50) was put at 29.8 µM.

For `CCCC(C(=O)O)c1c(C)nc(-c2ccccc2)nc1-c1ccc2c(c1)CCO2` (stereo not drawn) [cpd 70], the half-maximal cytotoxic concentration (CC50) in data set [1] turned out to be 90 µM. Half-maximal inhibition in data set [2] (IC50) was put at 14.9 µM. Moreover, it took 42.1 µM to reach a half-maximal effect with HIV (MT4-IIIB) (EC50).

With `CCCC(C(=O)O)c1c(C)nc(-c2ccccc2)nc1-c1ccc2occc2c1` (stereo not drawn) [cpd 72], the CC50 in data set [1] turned out to be 110 µM. In data set [2], this compound yielded an IC50 of 14.7 µM. This compound also showed an EC50 in the data set on HIV (MT4-IIIB) of 46.3 µM.

Take `CCCC(C(=O)O)c1c(C)nc(-c2ccccc2)nc1-c1ccc(Cl)cc1F` (stereo not drawn) [cpd 94]: the CC50 in data set [1] is 81 µM. This compound returned an IC50 in data set [2] of 7.25 µM. This compound gave an EC50 with HIV (MT4-IIIB) of 19 µM.

For `CCCC(C(=O)O)c1c(C)nc(-c2ccccc2)nc1-c1ccc(C)cc1F` (stereo not drawn) [cpd 98], the CC50 in data set [1] is 113 µM. In data set [2], this compound registered an IC50 of 13.5 µM. Besides, the EC50 in the data set on HIV (MT4-IIIB) came out at 35.9 µM.

In the case of `CCCC(C(=O)O)c1c(C)nc(-c2ccccc2)nc1-c1ccc(Cl)cc1` (stereo not drawn) [cpd 102], in data set [1], the CC50 amounted to 143 µM. Besides, the IC50 in data set [2] turned out to be 13.4 µM. It took 13.4 µM to reach a half-maximal effect in the data set with HIV (MT4-IIIB) (EC50).

For `CCCC(C(=O)O)c1c(C)nc(-c2ccccc2)nc1-c1ccc(Cl)cc1O` (stereo not drawn) [cpd 111], the CC50 in data set [1] is 97 µM. This compound also showed an IC50 in data set [2] of 1.97 µM. This compound gave an EC50 in the data set with HIV (MT4-IIIB) of 26.4 µM.

With `CCCC(C(=O)O)c1c(C)nc(-c2ccccc2)nc1-c1ccc(C)cc1O` (stereo not drawn) [cpd 119], the CC50 in data set [1] was 120 µM. In addition, in data set [2], the IC50 was determined as 21.9 µM. In the data set on HIV (MT4-IIIB), this compound gave an EC50 of 29.4 µM.

With `COCCC(C(=O)O)c1c(C)nc(N2CCCCC2)nc1-c1ccc(C)cc1` (stereo not drawn) [cpd 122], the 50% cytotoxic concentration (CC50) in data set [1] is above 250 µM. This compound also registered a half-maximal inhibitory concentration (IC50) in data set [2] of 59.7 µM. Besides, in the data set with HIV (MT4-IIIB), the concentration for a half-maximal effect (EC50) came out at 21.5 µM.

With `Cc1ccc(-c2nc(N3CCCCC3)nc(C)c2C(CCCC(F)(F)F)C(=O)O)cc1` (stereo not drawn) [cpd 124], the CC50 in data set [1] is 124 µM. This compound gave an IC50 in data set [2] of 19.7 µM. The EC50 in the data set with HIV (MT4-IIIB) was found to be 5.3 µM.

As for `CCCC(C(=O)O)c1c(C)nc(N2CCCCC2)nc1-c1ccc(F)cc1F` (stereo not drawn) [cpd 130], the CC50 in data set [1] was determined as 99 µM. In addition, it took 17.4 µM to reach half-maximal inhibition in data set [2] (IC50). Also, the EC50 with HIV (MT4-IIIB) is 22.7 µM.

Take `CCCC(C(=O)O)c1c(C)nc(N2CCCCC2)nc1-c1ccc(C)cc1C` (stereo not drawn) [cpd 132]: the cytotoxic concentration (CC50) in data set [1] is 84.5 µM. In data set [2], this compound registered a concentration for half-maximal inhibition (IC50) of 22.9 µM. For the same compound, the EC50 in the data set with HIV (MT4-IIIB) was 30.2 µM.

As for `CCCC(C(=O)O)c1c(C)nc(N2CCCCC2)nc1-c1ccc(OC)cc1F` (stereo not drawn) [cpd 136], the CC50 in data set [1] was determined as 127 µM. The same compound registered an IC50 in data set [2] of 20.7 µM. The same compound had an EC50 in the data set on HIV (MT4-IIIB) of 49 µM.

`CCCC(C(=O)O)c1c(C)nc(N2CCCCC2)nc1-c1ccc(C)cc1Cl` (stereo not drawn) [cpd 144]: in data set [1], the CC50 came to 72.5 µM. In addition, the midpoint of inhibition in data set [2], the IC50, lay at 5.92 µM. The compound further gave an EC50 in the data set on HIV (MT4-IIIB) of 7.93 µM.

Take `CCCC(C(=O)O)c1c(C)nc(N2CCCCC2)nc1-c1ccc(Cl)cc1F` (stereo not drawn) [cpd 146]: the half-maximal cytotoxic concentration (CC50) in data set [1] was determined as 72 µM. In addition, the IC50 in data set [2] amounted to 10.8 µM. In addition, the half-maximal effective concentration (EC50) in the data set on HIV (MT4-IIIB) was 9.38 µM.

With `CCCC(C(=O)O)c1c(C)nc(N2CCCCC2)nc1N1CCCCC1` (stereo not drawn) [cpd 148], the CC50 in data set [1] was found to be 138 µM. Further, in data set [2], half-maximal inhibition (IC50) was put at 34.1 µM. In the data set on HIV (MT4-IIIB), this compound returned an EC50 of 18.1 µM.

As for `Cc1ccc(-c2nc(N3CCCCC3)nc(C)c2C(CC(C)(C)C)C(=O)O)cc1` (stereo not drawn) [cpd 152], in data set [1], the CC50 was determined as 72 µM. In addition, in data set [2], the IC50 was 6.9 µM. The EC50 in the data set on HIV (MT4-IIIB) turned out to be 3.48 µM.
